Active and inactive are the calls of the source. Cut-off read from the data, not from the text of the source: actives have a measured IC50 and inactives only a lower limit.
Each molecule was assayed against Envelope glycoprotein gp160 (Human immunodeficiency virus 1, UniProt Q6QLK5) (assay: cell-free HIV fusion peptide-binding blockers – biochemical, uHTS, fluorescence dequenching, […] (AID 1986)).
Chain of Envelope glycoprotein gp160 (Q6QLK5 whole entry, the tested form may be a part): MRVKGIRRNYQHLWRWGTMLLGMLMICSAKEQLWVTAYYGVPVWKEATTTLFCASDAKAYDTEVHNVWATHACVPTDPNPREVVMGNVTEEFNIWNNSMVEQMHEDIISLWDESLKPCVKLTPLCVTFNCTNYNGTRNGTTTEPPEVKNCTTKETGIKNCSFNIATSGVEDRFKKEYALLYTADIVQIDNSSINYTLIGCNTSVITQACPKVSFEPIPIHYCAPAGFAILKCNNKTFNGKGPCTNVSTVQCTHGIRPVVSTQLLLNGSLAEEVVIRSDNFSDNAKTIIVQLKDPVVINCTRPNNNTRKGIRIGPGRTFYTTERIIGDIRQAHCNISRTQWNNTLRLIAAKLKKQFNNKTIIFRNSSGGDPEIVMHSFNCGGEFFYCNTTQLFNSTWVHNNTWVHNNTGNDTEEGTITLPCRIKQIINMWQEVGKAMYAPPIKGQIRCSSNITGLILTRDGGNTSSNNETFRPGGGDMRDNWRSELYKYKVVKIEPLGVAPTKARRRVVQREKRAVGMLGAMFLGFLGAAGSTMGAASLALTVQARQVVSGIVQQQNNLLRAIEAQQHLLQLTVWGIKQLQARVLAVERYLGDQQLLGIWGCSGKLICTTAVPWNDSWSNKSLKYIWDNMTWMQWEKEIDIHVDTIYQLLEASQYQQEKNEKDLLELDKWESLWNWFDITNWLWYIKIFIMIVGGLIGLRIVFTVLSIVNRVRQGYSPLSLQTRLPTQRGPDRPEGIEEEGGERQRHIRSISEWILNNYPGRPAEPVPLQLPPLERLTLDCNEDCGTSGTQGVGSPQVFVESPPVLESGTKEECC
For `COc1cc(/C=N/NS(=O)(=O)c2ccc3ccccc3c2)ccc1OCc1ccc(C(=O)O)cc1`, the IC50 was 27 µM (active).
With `CCC(Sc1nc2ccsc2c(=O)n1Cc1ccc(C(=O)O)cc1)C(=O)Nc1ccc(C)c(Cl)c1` (stereo not given) the IC50 was 20 µM (active).
For `COc1cc(/C=N/NC(=O)C(Cc2c[nH]c3ccccc23)NC(=O)OCc2ccccc2)cc([N+](=O)[O-])c1O` (stereo not given), the IC50 was 17.2 µM (active).
For `O=C(O)C1Nc2c(cccc2C(F)(F)F)C2C=CCC12` (stereo not given), the IC50 was 12.7 µM (active).
For `O=C(O)c1[nH]c2ccccc2c1C(c1cc(Cl)cc([N+](=O)[O-])c1O)c1c(C(=O)O)[nH]c2ccccc12`, the IC50 was 2.55 µM (active).

Reference: ChEMBL document CHEMBL1201862, “PubChem BioAssay data set” (2004)
